# Reference: article PMC10850145, “Hormonal steroids induce multidrug resistance and stress response genes in Neisseria gonorrhoeae by binding to MtrR” (Nature Communications, 2024)
# Values joined by “and” are separate entries in the source; they are usually repeats but may differ in a detail not shown here. Equal entries are not always repeated. Where two headings read alike, the source gives them in different places.
# Tested on: mtrC-lacZ expression
# Format: cell-based, Neisseria gonorrhoeae
# Conditions: for mtrC-lacZ β-galactosidase activity, Mean: left block of sheet (mtrCDE); for β-galactosidase activity, Mean: second (right) untitled block of sheet Figure S10 (mtrC)
# [1] = strain ΔmtrR + mtrR R176E, 6.25 µM hormone
# [2] = strain ΔmtrR + mtrR R176E, 12.5 µM hormone
# [3] = strain ΔmtrR + mtrR R176E, 25 µM hormone
# [4] = strain ΔmtrR + mtrR R176E, 50 µM hormone
# [5] = strain ΔmtrR + mtrR WT, 6.25 µM hormone
# [6] = strain ΔmtrR + mtrR WT, 12.5 µM hormone
# [7] = strain ΔmtrR + mtrR WT, 25 µM hormone
# [8] = strain ΔmtrR + mtrR WT, 50 µM hormone
compound,measurement,setting,value
"CC(=O)[C@H]1CC[C@H]2[C@@H]3CCC4=CC(=O)CC[C@]4(C)[C@H]3CC[C@]12C [Progesterone, progesterone]","β-galactosidase activity, mtrC-lacZ, Mean","strain WT (FA19/pLES94-mtrC), hormone 6.25 µM",97 Miller units
same,"β-galactosidase activity, mtrC-lacZ, Mean","strain WT (FA19/pLES94-mtrC), hormone 12.5 µM",126 Miller units
same,"β-galactosidase activity, mtrC-lacZ, Mean","strain WT (FA19/pLES94-mtrC), hormone 25 µM",146 Miller units
same,"β-galactosidase activity, mtrC-lacZ, Mean","strain WT (FA19/pLES94-mtrC), hormone 50 µM",139 Miller units
same,"mtrC-lacZ β-galactosidase activity, Mean","strain WT, 6.25 µM hormone",108 Miller units
same,"β-galactosidase activity, Mean","strain WT, 6.25 µM hormone",36 Miller units
same,"mtrC-lacZ β-galactosidase activity, Mean","strain WT, 12.5 µM hormone",144 Miller units
same,"β-galactosidase activity, Mean","strain WT, 12.5 µM hormone",47 Miller units
same,"mtrC-lacZ β-galactosidase activity, Mean","strain WT, 25 µM hormone",194 Miller units
same,"β-galactosidase activity, Mean","strain WT, 25 µM hormone",70 Miller units
same,"mtrC-lacZ β-galactosidase activity, Mean","strain WT, 50 µM hormone",222 Miller units
same,"β-galactosidase activity, Mean","strain WT, 50 µM hormone",97 Miller units
same,activation of mtrC,strain producing MtrR R176E,almost no activation
same,"β-galactosidase activity, mtrC-lacZ, Mean","strain ΔmtrR (FA19 ∆mtrR/pLES94-mtrC), hormone 6.25 µM",210 Miller units
same,"β-galactosidase activity, mtrC-lacZ, Mean","strain ΔmtrR (FA19 ∆mtrR/pLES94-mtrC), hormone 12.5 µM",191 Miller units
same,"β-galactosidase activity, mtrC-lacZ, Mean","strain ΔmtrR (FA19 ∆mtrR/pLES94-mtrC), hormone 25 µM",234 Miller units
same,"β-galactosidase activity, mtrC-lacZ, Mean","strain ΔmtrR (FA19 ∆mtrR/pLES94-mtrC), hormone 50 µM",188 Miller units
same,"β-galactosidase activity, mtrC-lacZ, Mean","strain ΔmtrR + mtrR D171A (pGCC3-mtrR D171A), hormone 6.25 µM",146 Miller units
same,"β-galactosidase activity, mtrC-lacZ, Mean","strain ΔmtrR + mtrR D171A (pGCC3-mtrR D171A), hormone 12.5 µM",142 Miller units
same,"β-galactosidase activity, mtrC-lacZ, Mean","strain ΔmtrR + mtrR D171A (pGCC3-mtrR D171A), hormone 25 µM",168 Miller units
same,"β-galactosidase activity, mtrC-lacZ, Mean","strain ΔmtrR + mtrR D171A (pGCC3-mtrR D171A), hormone 50 µM",106 Miller units
same,"mtrC-lacZ β-galactosidase activity, Mean",[1],217 Miller units
same,"β-galactosidase activity, Mean",[1],91 Miller units
same,"mtrC-lacZ β-galactosidase activity, Mean",[2],208 Miller units
same,"β-galactosidase activity, Mean",[2],92 Miller units
same,"mtrC-lacZ β-galactosidase activity, Mean",[3],226 Miller units
same,"β-galactosidase activity, Mean",[3],111 Miller units
same,"mtrC-lacZ β-galactosidase activity, Mean",[4],231 Miller units
same,"β-galactosidase activity, Mean",[4],98 Miller units
same,"β-galactosidase activity, mtrC-lacZ, Mean","strain ΔmtrR + mtrR WT (pGCC3-mtrR), hormone 6.25 µM",84 Miller units
same,"β-galactosidase activity, mtrC-lacZ, Mean","strain ΔmtrR + mtrR WT (pGCC3-mtrR), hormone 12.5 µM",89 Miller units
same,"β-galactosidase activity, mtrC-lacZ, Mean","strain ΔmtrR + mtrR WT (pGCC3-mtrR), hormone 25 µM",113 Miller units
same,"β-galactosidase activity, mtrC-lacZ, Mean","strain ΔmtrR + mtrR WT (pGCC3-mtrR), hormone 50 µM",129 Miller units
same,"mtrC-lacZ β-galactosidase activity, Mean",[5],95 Miller units
same,"β-galactosidase activity, Mean",[5],19 Miller units
same,"mtrC-lacZ β-galactosidase activity, Mean",[6],111 Miller units
same,"β-galactosidase activity, Mean",[6],24 Miller units
same,"mtrC-lacZ β-galactosidase activity, Mean",[7],124 Miller units
same,"β-galactosidase activity, Mean",[7],34 Miller units
same,"mtrC-lacZ β-galactosidase activity, Mean",[8],160 Miller units
same,"β-galactosidase activity, Mean",[8],45 Miller units
same,"mtrC-lacZ β-galactosidase activity, Mean","strain ΔmtrR, 6.25 µM hormone",311 Miller units
same,"β-galactosidase activity, Mean","strain ΔmtrR, 6.25 µM hormone",126 Miller units
same,"mtrC-lacZ β-galactosidase activity, Mean","strain ΔmtrR, 12.5 µM hormone",285 Miller units
same,"β-galactosidase activity, Mean","strain ΔmtrR, 12.5 µM hormone",129 Miller units
same,"mtrC-lacZ β-galactosidase activity, Mean","strain ΔmtrR, 25 µM hormone",297 Miller units
same,"β-galactosidase activity, Mean","strain ΔmtrR, 25 µM hormone",134 Miller units
same,"mtrC-lacZ β-galactosidase activity, Mean","strain ΔmtrR, 50 µM hormone",286 Miller units
same,"β-galactosidase activity, Mean","strain ΔmtrR, 50 µM hormone",97 Miller units
same,"β-galactosidase activity, Miller units (single replicate)","ΔmtrR + mtrR WT in trans, 6.25 µM, first data set (c15-c36)",95 Miller units
same,"β-galactosidase activity, Miller units (single replicate)","ΔmtrR + mtrR WT in trans, 6.25 µM, second data set (c53-c74)",19 Miller units and 16 Miller units and 17 Miller units and 23 Miller units
same,"β-galactosidase activity, Miller units (single replicate)","ΔmtrR + mtrR WT in trans, 12.5 µM, first data set (c15-c36)",114 Miller units
same,"β-galactosidase activity, Miller units (single replicate)","ΔmtrR + mtrR WT in trans, 12.5 µM, second data set (c53-c74)",22 Miller units and 26 Miller units and 24 Miller units
same,"β-galactosidase activity, Miller units (single replicate)","ΔmtrR + mtrR WT in trans, 25 µM, first data set (c15-c36)",128 Miller units
same,"β-galactosidase activity, Miller units (single replicate)","ΔmtrR + mtrR WT in trans, 25 µM, second data set (c53-c74)",39 Miller units and 34 Miller units and 32 Miller units and 31 Miller units
same,"β-galactosidase activity, Miller units (single replicate)","ΔmtrR + mtrR WT in trans, 50 µM, first data set (c15-c36)",194 Miller units
same,"β-galactosidase activity, Miller units (single replicate)","ΔmtrR + mtrR WT in trans, 50 µM, second data set (c53-c74)",54 Miller units and 51 Miller units and 38 Miller units and 39 Miller units
same,"β-galactosidase activity, Miller units (single replicate)","ΔmtrR, 6.25 µM, first data set (c15-c36)",324 Miller units and 312 Miller units and 315 Miller units and 294 Miller units
same,"β-galactosidase activity, Miller units (single replicate)","ΔmtrR, 6.25 µM, second data set (c53-c74)",161 Miller units and 130 Miller units and 118 Miller units and 97 Miller units
same,"β-galactosidase activity, Miller units (single replicate)","ΔmtrR, 12.5 µM, first data set (c15-c36)",289 Miller units and 316 Miller units and 292 Miller units and 245 Miller units
same,"β-galactosidase activity, Miller units (single replicate)","ΔmtrR, 12.5 µM, second data set (c53-c74)",170 Miller units and 117 Miller units and 123 Miller units and 105 Miller units
same,"β-galactosidase activity, Miller units (single replicate)","ΔmtrR, 25 µM, first data set (c15-c36)",397 Miller units and 288 Miller units and 270 Miller units and 234 Miller units
same,"β-galactosidase activity, Miller units (single replicate)","ΔmtrR, 25 µM, second data set (c53-c74)",195 Miller units and 111 Miller units and 136 Miller units and 96 Miller units
same,"β-galactosidase activity, Miller units (single replicate)","ΔmtrR, 50 µM, first data set (c15-c36)",318 Miller units and 329 Miller units and 263 Miller units and 234 Miller units
same,"β-galactosidase activity, Miller units (single replicate)","ΔmtrR, 50 µM, second data set (c53-c74)",134 Miller units and 92 Miller units and 84 Miller units and 79 Miller units
